We go through 13 molecules from ChEMBL document CHEMBL1201862, “PubChem BioAssay data set” (2004).

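Protocol summary: plate cells (96-well), add compound at 5 concentrations, incubate 48 h, interpolate endpoints linearly. Abbreviation: GI50, concentration required for 50% inhibition of growth.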 Activity calls are given as the source filed them. Rule as the data show it: active = GI50 up to about 1.1 µM and inactive = higher.

Common to all, as to experiment: inhibition of tumour cell growth, NCI panel, 48 h
In test [1] the test system is KM12.
The test system of test [2] is UO-31.
Test [3] deals with SNB-78.
For test [4], the system named is COLO 205.
Test [5] has as its system U-251.
In test [6] the test system is OVCAR-4.
In test [7] the test system is SF-295.
Test [8] concerns SK-MEL-5.
The subject of test [9] is HOP-92.
For test [10], the system named is Malme-3M.
Test [11] relates to SN12C.
Test [12] deals with SNB-75.
For test [13], the system named is 786-0.
Test [14] deals with CCRF-CEM.
The subject of test [15] is HL-60.
The test system of test [16] is A549.
Test [17] relates to OVCAR-5.
The subject of test [18] is DU-145.
The test system of test [19] is PC-3.
In test [20] the test system is MDA-MB-435.

Take `C=CC/N=C1\N=C(C)C(C(=O)OCC)S1` (stereo not given): the GI50 in test [1], in [2], in [3], in test [4], in test [5] and in test [6] was > 100 µM (inactive) in each case. The GI50 in test [7], in test [8], in test [9], in test [10], in test [11] and in test [12] was > 100 µM (inactive) in each case. Moreover, the GI50 was > 100 µM (inactive) in [13]; 7.05 µM (inactive) in test [14]; 7.16 µM (inactive) in [15]; > 100 µM (inactive) in test [16]; > 100 µM (inactive) in [17].
`O=C1C(C2=[N+]([O-])c3ccccc3C2=O)=[N+]([O-])c2ccccc21`: the GI50 in test [1] is > 10 µM (inactive); in [2], 43.1 µM (inactive); in [3], 38.3 µM (inactive); in test [4], 17.7 µM (inactive); in test [5] it was 20.4 µM (inactive); in [6], 14.5 µM (inactive). The GI50 in test [7] is 40.7 µM (inactive); in test [8], 17.8 µM (inactive); in test [12] it was 35.1 µM (inactive); in test [13], 20.6 µM (inactive); in [14] it was 19.3 µM (inactive); in test [15] it was 19.4 µM (inactive). Also, the values for the GI50 in test [16] and in test [17] were 26.4 µM (inactive) and 94.4 µM (inactive), respectively.
Regarding `COC12C=CC(CC1)c1c(O)ccc(O)c12` (stereo not given), the GI50 in test [1] is > 95.1 µM (inactive); in [2], > 80.7 µM (inactive); in test [3], 49.2 µM (inactive); in [4], 22.6 µM (inactive); in [5], 38.9 µM (inactive); in test [6], 19.6 µM (inactive). Further, the GI50 in [7] was > 90.8 µM (inactive); in test [8] it was 45 µM (inactive); in test [10] it was > 51.5 µM (inactive); in test [11], 59.3 µM (inactive); in test [12], 53.7 µM (inactive); in test [13] it was > 64.9 µM (inactive). The GI50 in test [14] was 20.6 µM (inactive); in [15] it was 2.39 µM (inactive); in [16], > 92.5 µM (inactive); in test [17], > 100 µM (inactive).
In the case of `O=C(O)CCCc1cc2c(s1)-c1cccc3cccc-2c13`, the GI50 in test [1] is 19.4 µM (inactive); in [2], 17 µM (inactive); in test [3], 27.6 µM (inactive); in test [4] it was 20.3 µM (inactive); in test [5], 25.4 µM (inactive); in test [6] it was 76.9 µM (inactive). Besides, the GI50 in [7] was 50.1 µM (inactive); in [9] it was 17.7 µM (inactive); in test [10], 28.9 µM (inactive); in [11], 26 µM (inactive); in test [12] it was 50.4 µM (inactive); in [13] it was > 100 µM (inactive). The GI50 was 22.4 µM (inactive) in [15], 36.6 µM (inactive) in test [16] and > 100 µM (inactive) in test [17].
In the case of `COc1cc(/C=C2\C(=O)N(C(=O)Cc3ccccc3)N=C2C)ccc1O`, the GI50 in test [1], in test [2], in test [3], in test [4], in [6] and in test [7] was > 100 µM (inactive) each time. In addition, the GI50 was 3.01 µM (inactive) in test [8]; > 100 µM (inactive) in [10]; > 100 µM (inactive) in [11]; > 100 µM (inactive) in test [12]; > 100 µM (inactive) in test [13]; > 100 µM (inactive) in [14]. Also, the GI50 in [15], in test [16] and in test [17] was > 100 µM (inactive) throughout.
For the molecule `CC(C)(C)c1cc([Si](C)(C)C)c(C#N)c([Si](C)(C)C)c1`, the GI50 is 88.9 µM (inactive) in [1]; > 100 µM (inactive) in test [2]; 53.2 µM (inactive) in test [3]; 51.3 µM (inactive) in test [4]; 36.1 µM (inactive) in [5]; > 100 µM (inactive) in [6]. Also, the GI50 in test [7] was 29.8 µM (inactive); in test [9] it was > 100 µM (inactive); in test [10] it was > 100 µM (inactive); in test [11], > 100 µM (inactive); in test [12] it was 47.3 µM (inactive); in [13], > 100 µM (inactive). Moreover, the GI50 in [14] was 48.6 µM (inactive); in test [15], 22 µM (inactive); in [16], 65.5 µM (inactive); in [17], > 100 µM (inactive).
On to `CC1(C)CC(/C=C2/OC(=O)c3ccccc32)=C(C#N)C(=O)O1`, for which the GI50 is > 100 µM (inactive) in test [1]; > 100 µM (inactive) in test [2]; > 100 µM (inactive) in test [3]; > 100 µM (inactive) in test [4]; > 100 µM (inactive) in [5]; 18.6 µM (inactive) in test [6]. Also, the GI50 in test [7], in test [8], in [10], in test [11], in test [12] and in test [13] was > 100 µM (inactive) in each case. The GI50 in test [14], in [16] and in test [17] was > 100 µM (inactive) in each case.
For `COc1cc2c(c(O)c1C)C(=O)CC(c1ccccc1)O2` (stereo not given), the GI50 is 62.8 µM (inactive) in test [1]; 23 µM (inactive) in [2]; 55.7 µM (inactive) in test [3]; 56.4 µM (inactive) in test [5]; > 10 µM (inactive) in test [6]; > 10 µM (inactive) in test [7]. Besides, the GI50 in test [8] is 18.2 µM (inactive); in test [9] it was 13.4 µM (inactive); in test [10], 91.4 µM (inactive); in test [11], 37.5 µM (inactive); in test [12], 28.8 µM (inactive); in [13], 59.7 µM (inactive). The GI50 in test [14] is > 10 µM (inactive); in test [16] it was 56.6 µM (inactive); in test [17], 39.1 µM (inactive).
As for `COc1cc(Nc2nc3ccccc3nc2-c2cccs2)cc(OC)c1OC`, the GI50 in [2] was > 10 µM (inactive); in [3], 90.6 µM (inactive); in test [4], > 10 µM (inactive); in [5] it was > 10 µM (inactive); in [7] it was 22.8 µM (inactive); in test [9] it was 13.9 µM (inactive). The GI50 is 67.9 µM (inactive) in test [10]; 30.9 µM (inactive) in test [11]; 40.6 µM (inactive) in test [12]; 22.4 µM (inactive) in test [13]; 47.1 µM (inactive) in [14]; 15.2 µM (inactive) in test [15]. Besides, the results for the GI50 in [16] and in test [17] were 21 µM (inactive) and > 100 µM (inactive), respectively.
`CC(=O)Oc1cc(OC(C)=O)c(OC(C)=O)c2c1CC1C(=O)C3(CCc4ccccc43)C(=O)C1C2` (stereo not given): the GI50 was 22.1 µM (inactive) in test [2]; 23.1 µM (inactive) in [3]; 19.6 µM (inactive) in test [4]; 15.8 µM (inactive) in test [5]; 11.7 µM (inactive) in test [6]; 4.61 µM (inactive) in [7]. Besides, the GI50 in test [9] was > 100 µM (inactive); in [10], 7.57 µM (inactive); in [11], 17.3 µM (inactive); in test [12] it was 0.912 µM (active); in [13], 13.6 µM (inactive); in [14] it was 10.7 µM (inactive). In addition, the GI50 in [15] was 4.53 µM (inactive); in [16], 19.5 µM (inactive).
For the molecule `CN(C(=O)c1ccc([N+](=O)[O-])cc1)c1ccccc1`, the GI50 in [1], in test [2], in test [3], in [4], in test [5] and in test [6] was > 100 µM (inactive) each time. In addition, the GI50 in test [7] is > 100 µM (inactive); in test [9], > 100 µM (inactive); in test [10], > 100 µM (inactive); in test [11], > 100 µM (inactive); in [12] it was 87.9 µM (inactive); in test [13], > 100 µM (inactive). Also, the GI50 in test [14], in test [16] and in test [17] was > 100 µM (inactive) in each case.
Consider `NC1=Nc2ccccc2Sc2nnc(-c3ccc(Cl)cc3)n21`, for which the GI50 in test [1] is 98.2 µM (inactive); in test [2], > 100 µM (inactive); in test [4], 76.7 µM (inactive); in test [18], 49.2 µM (inactive); in test [5], 13.7 µM (inactive); in test [6], > 100 µM (inactive). The GI50 in test [7] was 29.6 µM (inactive); in [8], 68.5 µM (inactive); in [9], 68.2 µM (inactive); in test [10], > 100 µM (inactive); in test [11], 38.1 µM (inactive); in test [19], 16.5 µM (inactive). The GI50 in test [12] was 17.3 µM (inactive); in [13], 24 µM (inactive); in test [20], > 100 µM (inactive); in test [14] it was 14.8 µM (inactive); in [15], 8.59 µM (inactive); in test [16], 49.3 µM (inactive). For the same molecule, the GI50 in test [17] is > 100 µM (inactive).
As for `Cc1ccc(Cn2c(C)nc3c2C(=O)c2ccccc2C3=O)cc1`, the GI50 in test [1] was 4.56 µM (inactive); in test [2], 6.32 µM (inactive); in test [3] it was 20.3 µM (inactive); in test [4] it was 15.8 µM (inactive); in test [5] it was 1.88 µM (inactive); in test [6], 13.3 µM (inactive). For the same molecule, the GI50 is 7.66 µM (inactive) in [7]; 4.52 µM (inactive) in test [8]; 10.9 µM (inactive) in test [10]; 6.18 µM (inactive) in test [11]; 13.9 µM (inactive) in test [12]; 2.18 µM (inactive) in [13]. In addition, the GI50 in [14] was 1.98 µM (inactive); in test [15], 1.91 µM (inactive); in test [16], 4.63 µM (inactive).
